System: EETs, DHETs and HETEs in pancreas homogenates
Experiment: Targeted metabololipidomics of pancreas homogenates (cerulein AP mice)
Assay type: in vivo
Conditions: not statistically significant
Experimental: The extraction of targeted lipid mediators from pancreas was performed as follows: tissues were lyophilized and weighted, 10 mg was homogenized and deproteinized with 500 μL of ice-cold 10% v/v MeOH spiked with labeled standards, and subsequently diluted with 500 μL of phosphate-buffered saline (PBS). Samples were then loaded on solid-phase extraction cartridges, Strata-X reversed-phase SPE columns (100 mg/3 mL) (Phenomenex, Bologna, Italy). Cartridges were conditioned with 3 mL of MeOH and equilibrated with 3 mL of ddH2O. Following loading, washed with 1 mL of 10% MeOH v/v, and finally eluted with 1.5 mL of MeOH. Eluted samples were dried with a SpeedVac (Savant, Thermo Scientific, Milan, Italy) and dissolved prior to UHPLC-MS/MS analyses in 50 μL of UHPLC solvent A.
The analyses were acquired using a Shimadzu Nexera UHPLC (Kyoto, Japan) coupled online to a triple quadrupole LCMS-8050 (Shimadzu) equipped with an electrospray ionization (ESI) source operating in ESI negative mode. The separation was performed on a Kinetex EVO C18 150 mm × 2.1 mm, 2.6 μm (100 Å) (Phenomenex, Bologna, Italy). The flow rate was set to 0.4 mL/min, and the column oven was set at 40 °C. The mobile phases were, respectively: (A) ACN/H2O 45:55 acidified with 0.02% CH3COOH v/v and (B) ACN/IPA 50:50. The following gradient was used: 0 min, 0%B, 0–12 min 60%B, 12.10 min, 60–99%B, 12.10–13.05 isocratic to 99% B; returning to 0% B in 0.1. MS source parameters: desolvation Line (DL) 250 °C, interface: 300 °C, block heater 350 °C, nebulizing (N2), drying (N2), and heating (Air) gas pressures: 3, 10, 10 L/min. Each analyte was optimized by infusing standard solution at 0.2 mg/mL, multiple reaction monitoring (MRM) mode was used. Detailed MRM parameters are available in Table S3. […]

## CC(C)c1ccc(Cn2ccc3cc(NC(=O)NCC45C[C@H]6C[C@@H](C4)C[C@@H](C5)C6)ccc32)cc1 [Compound 28, 1-(((3R,5R,7R)-Adamantan-1-yl)methyl)-3-(1-(4-isopropylbenzyl)-1H-indol-5-yl)urea]
  change of DHET levels with respect to vehicle: −31.5%
  change of EETs levels with respect to vehicle: +21.9%
  change of HETEs levels (15-HETE, 12-HETE, 5-HETE) with respect to vehicle: −13.4%
